Assay results taken from US11015061B2, “Phthalocyanine-based compound and uses of same” (YAMAMOTO CHEMICALS, INC., priority 2017, dated 2021).

Tests used:
Assay type in all cases: physicochemical
[1] = Absorption spectrum of toluene solution (maximum absorption, gram absorption coefficient); conditions: for gram absorption coefficient: at maximum absorption
Protocol: A toluene solution of the compound obtained in this way had maximum absorption at 734.0 nm, and the gram absorption coefficient thereof was 1.21×10^5 mL/g·cm. The absorption spectrum chart thereof is illustrated in FIG. 1.

[2] = Solubility in organic solvent (cyclopentanone); conditions: about 10 wt % dispersion, room temperature, 0.2 μm filter; no residue = 10 wt % or more
Protocol: The solubility of the phthalocyanine compound with respect to cyclopentanone was measured by the following method.
Cyclopentanone was added to about 1 g of the phthalocyanine compound such that the total weight thereof became about 10 g, and the obtained solution was irradiated with ultrasonic waves for about 30 minutes and then stirred for 2 hours at room temperature, thereby preparing a dispersion liquid of about 10 wt %.
The dispersion liquid was filtered through a membrane filter (0.2 μm), the substance obtained by filtration was dried for 1 hour in a drier at 60° C., and then the weight of the substance obtained by filtration was measured.
The solubility of the phthalocyanine compound in a solvent is expressed by the following equation. Solubility (wt %)=(W0−W1)/W0
W0 represents the correct weight of the phthalocyanine not yet being treated, and W1 represents the weight of the substance obtained by filtration (dissolved phthalocyanine compound residue) having been dried.

[3] = Visible light transmittance of chloroform solution; conditions: spectrum converted to transmittance 10% at near-infrared maximum absorption wavelength
Protocol: The visible light transmittance of the phthalocyanine-based compound of the present invention and the comparative example compounds was measured by the following measurement method.
Each of the phthalocyanine compounds ([…]) and approximately 90 mL of chloroform were put into a 100 mL volumetric flask, and the solution in the flask was irradiated with ultrasonic waves for 30 minutes and left to stand for 2 hours at room temperature. Then, chloroform was added thereto such that the meniscus of the solution matched up with the calibration mark on the volumetric flask, thereby preparing a 10 mg/L phthalocyanine solution. The prepared solution was put into a 1 cm×1 cm cell made of PYREX (registered trademark), and the absorption spectrum thereof was measured using a spectrophotometer (produced by Hitachi, Ltd.: Spectrophotometer U-3500).
The absorption spectrum measured as above was converted such that the absorbance became 1.0, that is, the transmittance became 10% at the maximum absorption wavelength in a near-infrared range, thereby obtaining a transmission spectrum. […] At 460 nm, the transmittance of the compound of the present invention was approximately the same as the transmittance of Comparative Examples 1 and 2.

[4] = Tts (total solar transmittance) of heat ray shielding film; conditions: heat ray shielding film (5 g compound, 50 g acryl resin LP-45M, 2.5 μm on PET) on 3 mm glass plate; JIS R3106
Text: The phthalocyanine compound (Specific Example (1)-30) produced in Example 1 (5 g), 50 g of an acryl resin LP-45M (trade name, produced by Soken Chemical & Engineering Co., Ltd.), 20 g of methyl ethyl ketone, and 20 g of toluene were mixed and stirred together, thereby producing a resin composition.
As a transparent substrate, a polyethylene terephthalate film (PET film) having a thickness of 100 μm was bar-coated with the resin composition such that the thickness thereof became 2.5 μm, and then the applied resin composition was dried for 3 minutes at 100° C. Furthermore, the other surface of the PET film (surface not being coated with the resin composition) was bar-coated with a transparent acryl copolymer-based pressure sensitive adhesive such that the thickness thereof became 20 μm, and the applied pressure sensitive adhesive was dried and cured for 3 minutes at 100° C. Thereafter, a release film was bonded to the surface of the pressure sensitive adhesive, thereby producing a heat ray shielding film.
In the evaluation test, the release film was peeled from the produced heat ray shielding film, then the heat ray shielding film was compressed on a 5 cm×5 cm×3 mm (thickness) glass plate, and a test piece created in this way was used.
By using U-3500 type recording spectrophotometer produced by Hitachi, Ltd. as a measurement instrument, Tts of the laminated glass sample was measured based on JIS R3106 “Testing method for transmittance, reflectance, emissivity, and solar heat gain coefficient of flat glasses”.
Tts (Total solar energy transmitted through a glazing) represents a total solar transmittance.

[5] = Light fastness test of laminated glass; conditions: xenon light 200 hours at 550 W/h, absorbance integrated 400 to 900 nm
Protocol: (§1) The phthalocyanine-based compound (Specific Example (1)-30) produced in Example 1 (0.013 g) was dissolved in 40 g of triethylene glycol-di-2-ethylhexanoate as an organic ester plasticizer. The obtained solution was added to 100 g of a polyvinyl butyral resin (trade name: BH-3, produced by SEKISUI CHEMICAL CO., LTD.), thoroughly melted and kneaded using a mixing roll, and extruded using an extruder, thereby obtaining an interlayer having a thickness of 0.76 mm.
(§2) The interlayer was cut in size of 100 mm×100 mm, interposed between heat ray absorbing glass plates (100 mm (length)×100 mm (width)×2.0 mm (thickness)) prepared based on JIS R3208, put into a rubber bag, and deaerated for 20 minutes at a degree of vacuum of 2.6 kPa. Then, the deaerated laminate was moved into an oven and further hold for 30 minutes at 90° C. to vacuum press. Thereafter, the laminate was compressed for 20 minutes in an autoclave under the condition of a temperature of 130° C. and a pressure of 1.3 MPa, thereby obtaining a laminated glass sample.
For a light fastness test, the absorption spectrum of the laminated glass was measured using a spectrophotometer (produced by Hitachi, Ltd.: Spectrophotometer U-3500) and adopted as a spectrum before light fastness test. Then, the laminated glass used for measuring the spectrum before test was irradiated with light for 200 hours at 550 W/h by using a xenon light fastness tester (produced by Toyo Seiki Seisaku-sho, Ltd.: SUNTEST XLS+). The absorption spectrum of the laminated glass irradiated with light was measured using the spectrophotometer and adopted as a spectrum after light fastness test.
(§3) In each of the spectra measured as above before and after the light fastness⋅heat resistance test, the values of absorbance within a range of 400 to 900 nm were integrated, and a difference between the integrated value before the light fastness⋅heat resistance test and the integrated value after the light fastness⋅heat resistance test was calculated.
(§4) The difference ΔE between the absorbance before the light fastness⋅heat resistance test and the absorbance after the light fastness⋅heat resistance test is expressed by the following equation. ΔE (%)={E(400 to 900 nm in E1)−E(400 to 900 nm in E2)}/E(400 to 900 nm in E1)×100
(§5) E1 represents the spectrum before test, E2 represents the spectrum after test, and Σ represents integration of values of absorbance. The larger the value of ΔE, the greater the spectrum change between before and after the light fastness⋅heat resistance test.

[6] = Heat resistance test of laminated glass; conditions: 200 hours at 100° C., absorbance integrated 400 to 900 nm
Protocol: as §1, §2
For a heat resistance test, the laminated glass used for measuring the spectrum before test as described above was treated with heat for 200 hours at a temperature of 100° C. in a thermostat (produced by Yamato Scientific co., ltd.: IG400). By using the spectrophotometer, the absorption spectrum of the heat-treated laminated glass was measured and adopted as a spectrum after heat resistance test.
as §3, §4, §5

| SMILES | maximum absorption [1] [nm] | gram absorption coefficient [1] [mL/g/cm] | Solubility to cyclopentanone (wt %) [2] [% wt %] | Transmittance (%) 460 nm [3] [%] | Transmittance (%) 610 nm [3] [%] | Tts [4] [%] | ΔE (%) Light fastness [5] [%] | ΔE (%) Heat resistance [6] [%] |
| --- | --- | --- | --- | --- | --- | --- | --- | --- |
| COc1cccc(OC)c1OCCCCc1ccc(CCCCOc2c(OC)cccc2OC)c2c1-c1nc-2nc2[n-]c(nc3nc(nc4[n-]c(n1)c1c(CCCCOc5c(OC)cccc5OC)ccc(CCCCOc5c(OC)cccc5OC)c41)-c1c(CCCCOc4c(OC)cccc4OC)ccc(CCCCOc4c(OC)cccc4OC)c1-3)c1c(CCCCOc3c(OC)cccc3OC)ccc(CCCCOc3c(OC)cccc3OC)c21.[Cu+2] [Specific Example (1)-45] | 706.5 | 60100 | ≥10 | 99.9 | 89.5 | 85.5 | 3 | 4 |
| COCc1ccc(COC)c2c1-c1nc-2nc2[n-]c(nc3nc(nc4[n-]c(n1)c1c(COC)ccc(COC)c41)-c1c(COC)ccc(COC)c1-3)c1c(COC)ccc(COC)c21.[O]=[V+2] [Comparative Example Compound (a), reference compound] | 733.0 | 130000 | ≤1 | 97.9 | 86.6 | 89.5 | 33 | 35 |
| CCOCCCCc1ccc(CCCCOCC)c2c1-c1nc-2nc2[n-]c(nc3nc(nc4[n-]c(n1)c1c(CCCCOCC)ccc(CCCCOCC)c41)-c1c(CCCCOCC)ccc(CCCCOCC)c1-3)c1c(CCCCOCC)ccc(CCCCOCC)c21.[O]=[V+2] [Specific Example (1)-33] | 734.0 | 119000 | ≥10 | 98.1 | 88.3 | 85.8 | 2 | 3 |
| Fc1ccccc1OCCCCc1ccc(CCCCOc2ccccc2F)c2c1-c1nc-2nc2[n-]c(nc3nc(nc4[n-]c(n1)c1c(CCCCOc5ccccc5F)ccc(CCCCOc5ccccc5F)c41)-c1c(CCCCOc4ccccc4F)ccc(CCCCOc4ccccc4F)c1-3)c1c(CCCCOc3ccccc3F)ccc(CCCCOc3ccccc3F)c21.[O]=[V+2] [Specific Example (1)-43] | 735.5 | 78900 | ≥10 | 97.6 | 88.0 | 85.7 | 3 | 4 |
| [O]=[V+2].c1ccc(OCCCCc2ccc(CCCCOc3ccccc3)c3c2-c2nc-3nc3[n-]c(nc4nc(nc5[n-]c(n2)c2c(CCCCOc6ccccc6)ccc(CCCCOc6ccccc6)c52)-c2c(CCCCOc5ccccc5)ccc(CCCCOc5ccccc5)c2-4)c2c(CCCCOc4ccccc4)ccc(CCCCOc4ccccc4)c32)cc1 [Specific Example (1)-37] | 735.5 | 86300 | ≥10 | 98.0 | 88.1 | 85.5 | 3 | 3 |
| COCCCCc1ccc(CCCCOC)c2c1-c1nc-2nc2[n-]c(nc3nc(nc4[n-]c(n1)c1c(CCCCOC)ccc(CCCCOC)c41)-c1c(CCCCOC)ccc(CCCCOC)c1-3)c1c(CCCCOC)ccc(CCCCOC)c21.[Cu+2] [Specific Example (1)-31] | 705.5 | 78900 | ≥10 | 99.2 | 88.3 | 86 | 3 | 2 |
| [O]=[V+2].c1ccc(OCCOCCCCc2ccc(CCCCOCCOc3ccccc3)c3c2-c2nc-3nc3[n-]c(nc4nc(nc5[n-]c(n2)c2c(CCCCOCCOc6ccccc6)ccc(CCCCOCCOc6ccccc6)c52)-c2c(CCCCOCCOc5ccccc5)ccc(CCCCOCCOc5ccccc5)c2-4)c2c(CCCCOCCOc4ccccc4)ccc(CCCCOCCOc4ccccc4)c32)cc1 [Specific Example (1)-38] | 735.0 | 71600 | ≥10 | 98.3 | 88.6 | 85.8 | 4 | 2 |
| CC(C)(C)c1ccc(OCCCCc2ccc(CCCCOc3ccc(C(C)(C)C)cc3)c3c2-c2nc-3nc3[n-]c(nc4nc(nc5[n-]c(n2)c2c(CCCCOc6ccc(C(C)(C)C)cc6)ccc(CCCCOc6ccc(C(C)(C)C)cc6)c52)-c2c(CCCCOc5ccc(C(C)(C)C)cc5)ccc(CCCCOc5ccc(C(C)(C)C)cc5)c2-4)c2c(CCCCOc4ccc(C(C)(C)C)cc4)ccc(CCCCOc4ccc(C(C)(C)C)cc4)c32)cc1.[O]=[V+2] [Specific Example (1)-42] | 734.5 | 71000 | ≥10 | 97.9 | 88.5 | 86 | 2 | 3 |
